In patent US6342487B1, “Compositions containing at least one farnesyl transferase inhibitor and at least one topoisomerase inhibitor and compositions containing at least one farnesyl transferase inhibitor and at least one taxoid” (Aventis Pharma Rorer S.A., priority 1998, dated 2002):

Experiments:
human colon tumor HCT116 = test: Activity on the colon tumor HCT116 grafted by the subcutaneous route onto female nu/nu Swiss mice; assay type: in vivo
Protocol: This efficacy can be quantified, for example, by the net log 10 of the killed cells which is determined according to the following formula:
net log 10 of the killed cells=[T-C (days)−duration of the treatment (days)]/[3.32·Td]
in which T-C represents the delay in tumor growth which is the median time, in days, which the tumors of the treated group (T) and the tumors of the control group (C) took to reach a predetermined value (1 g for example) and Td represents the time, in days, necessary for the doubling of the volume of the tumor in the control animals [T. H. CORBETT et al., Cancer, 40, 2660-2680 (1977); F. M. SCHABEL et al., Cancer Drug Development, Part B, Methods in Cancer Research, 17, 3-51, New York, Academic Press Inc. (1979)].
A product is considered as very active if net log 10 of the killed cells is greater than or equal to 2.8. […] In such a case, the net log 10 of the killed cells has a positive value.
The combination, used at its own maximum tolerated dose, in which each of the constituents will be present at a dose which is generally lower than or equal to its maximum tolerated dose, will show a therapeutic synergy when the net log 10 of the killed cells is higher than the value of the net log 10 of the killed cells of the better constituent when it is administered alone.
The efficacy of the combinations on solid tumors can be determined experimentally in the following manner:
The animals subjected to the experiment, generally mice, are grafted bilaterally by the subcutaneous route with 30 to 60 mg of a tumor fragment on day 0. In the case of treatment of advanced tumors, the tumors are allowed to develop to the desired size, the animals having insufficiently developed tumors being eliminated. The selected animals are divided as a function of their tumor weight in a homogeneous manner between the treated and control groups, before the start of the treatments. Chemotherapy generally commences 12 to 14 days after the implantation of the tumor and the animals are observed every day. The different groups of animals are weighed every day until the maximum loss of weight is reached and then the groups are weighed at least once per week until the end of the test. The tumors are measured 2 to 3 times per week, with the aid of a slide calliper, according to two measurements in mm which are then converted into tumor weight according to the following formula: […]
The tumors are measured two or three times per week until the tumor reaches approximately 2 g or until the death of the animal if this occurs before the tumor reaches 2 g. An autopsy is carried out on the animals at the time of sacrifice.
The antitumor activity is determined as a function of the different parameters recorded.

[1] = Toxicity of the combination of product A with irinotecan; assay type: in vivo; conditions: in combination with the topoisomerase inhibitor irinotecan
[2] = Table 1, tumor doubling time 3.4 days, doses 25 and 248 mg/kg per injection, days 14, 18, 22 (2x/d.) and 25-36 (2x/d.)
[3] = Table 1, tumor doubling time 3.4 days, doses 25 and 400 mg/kg per injection, days 14, 18, 22 (2x/d.) and 25-36 (2x/d.)
[4] = Table 1, tumor doubling time 3.4 days, doses 25 and 645 mg/kg per injection, days 14, 18, 22 (2x/d.) and 25-36 (2x/d.)
[5] = Table 1, tumor doubling time 3.4 days, doses 41 and 248 mg/kg per injection, days 14, 18, 22 (2x/d.) and 25-36 (2x/d.)
[6] = Table 1, tumor doubling time 3.4 days, doses 41 and 400 mg/kg per injection, days 14, 18, 22 (2x/d.) and 25-36 (2x/d.)
[7] = Table 1, tumor doubling time 3.4 days, doses 41 and 645 mg/kg per injection, days 14, 18, 22 (2x/d.) and 25-36 (2x/d.)
[8] = Table 2, tumor doubling time 4.5 days, 11.2 mg/kg per injection, days 14, 18, 22 (2x/d.)
[9] = Table 2, tumor doubling time 4.5 days, 18.7 mg/kg per injection, days 14, 18, 22 (2x/d.)
[10] = Table 2, tumor doubling time 4.5 days, 31.2 mg/kg per injection, days 14, 18, 22 (2x/d.)
[11] = Table 2, tumor doubling time 4.5 days, 52.0 mg/kg per injection, days 14, 18, 22 (2x/d.)
[12] = Table 1, tumor doubling time 3.4 days, 248 mg/kg per injection, days 14-25 (2x/d.)
[13] = Table 1, tumor doubling time 3.4 days, 400 mg/kg per injection, days 14-25 (2x/d.)
[14] = Table 1, tumor doubling time 3.4 days, 645 mg/kg per injection, days 14-25 (2x/d.)
[15] = Table 2, tumor doubling time 4.5 days, 645 mg/kg per injection, days 14-25 (2x/d.)

SMILES: CCc1c2c(nc3ccc(OC(=O)N4CCC(N5CCCCC5)CC4)cc13)-c1cc3c(c(=O)n1C2)COC(=O)[C@]3(O)CC [Irinotecan, irinotecan]
- (T-C)-(Duration of treatment) (human colon tumor HCT116; [2]): 19.1 days
- Long-term survivors on day 154 (human colon tumor HCT116; [2]): 1/6
- net log10 of killed cells (human colon tumor HCT116; [2]): 1.7
- Long-term survivors on day 154 (human colon tumor HCT116; [3]): 2/7
- net log10 of killed cells (human colon tumor HCT116; [3]): 3.3
- Long-term survivors on day 154 (human colon tumor HCT116; [4]): 3/8
- net log10 of killed cells (human colon tumor HCT116; [4]): 3.6
- Long-term survivors on day 154 (human colon tumor HCT116; [5]): 4/8
- net log10 of killed cells (human colon tumor HCT116; [5]): 3.3
- (T-C)-(Duration of treatment) (human colon tumor HCT116; [6]): 55.9 days
- Long-term survivors on day 154 (human colon tumor HCT116; [6]): 4/7
- net log10 of killed cells (human colon tumor HCT116; [6]): 5.0
- Long-term survivors on day 154 (human colon tumor HCT116; [7]): 4/8
- net log10 of killed cells (human colon tumor HCT116; [7]): 3.4
- (T-C)-(Duration of treatment) (human colon tumor HCT116; [8]): 8.3 days
- net log10 of killed cells (human colon tumor HCT116; [8]): 0.6
- Long-term survivors on day 154 (human colon tumor HCT116; [9]): 0/5
- net log10 of killed cells (human colon tumor HCT116; [9]): 1.1
- Long-term survivors on day 154 (human colon tumor HCT116; [10]): 0/5
- net log10 of killed cells (human colon tumor HCT116; [10]): 1.0
- (T-C)-(Duration of treatment) (human colon tumor HCT116; [11]): 19.5 days
- Long-term survivors on day 154 (human colon tumor HCT116; [11]): 0/5
- net log10 of killed cells (human colon tumor HCT116; [11]): 1.3
- (T-C)-(Duration of treatment) (human colon tumor HCT116; mouse, in vivo, 86 mg/kg): toxic

SMILES: C=C(C(=O)N1C[C@@H]2[C@]3(c4ccc(C)cc4)CC[C@@H](c4ccccc43)[C@]2(C(=O)O)C1)c1ccccc1OC (racemic) [A, (3aRS,4SR,9SR,9aRS)-4,9-ethano-2-[2-(2-methoxyphenyl)propenoyl]-9-(4-methylphenyl)-2,3,3a,4,9,9a-hexahydro-1H-benzo[f]isoindole-3a-carboxylic acid]
- (T-C)-(Duration of treatment) (human colon tumor HCT116; [12]): -10.9 days
- Long-term survivors on day 154 (human colon tumor HCT116; [12]): 0/6
- net log10 of killed cells (human colon tumor HCT116; [12]): −1.0
- (T-C)-(Duration of treatment) (human colon tumor HCT116; [13]): -4.2 days
- Long-term survivors on day 154 (human colon tumor HCT116; [13]): 0/6
- net log10 of killed cells (human colon tumor HCT116; [13]): −0.4
- (T-C)-(Duration of treatment) (human colon tumor HCT116; [14]): -2.7 days
- Long-term survivors on day 154 (human colon tumor HCT116; [14]): 0/6
- net log10 of killed cells (human colon tumor HCT116; [14]): −0.2
- (T-C)-(Duration of treatment) (human colon tumor HCT116; [15]): 6.9 days
- Long-term survivors on day 154 (human colon tumor HCT116; [15]): 0/5
- net log10 of killed cells (human colon tumor HCT116; [15]): 0.5
- toxicity in combination with irinotecan [1]: does not increase the toxicity of irinotecan
